Measured values published in patent US11298363B2, “Triazolobenzazepines as vasopressin V1a receptor antagonists” (RICHTER GEDEON NYRT., priority 2017, dated 2022).
Where a name gives a salt, the structure may show the parent alone.

Key:
[1] = target: T1, human vasopressin V1a receptor (Homo sapiens, UniProt P37288); assay: Functional assay on human vasopressin V1a receptor expressing cell line (intracellular Ca2+ fluorescence); format: cell-based; details: 1321N1 cells, (Arg8)-vasopressin at EC80; read-out: IC50 (nM) on hV1a cell line
Description: Functional Assay to Test Compounds on Human Vasopressin V1a Receptor Expressing Cell Line
The ordinary secondary messenger pathway of the measured GPCR receptor was used, the endogenous Gq-associated system.
Using 30,000 cells/plate, compounds were measured on 96-well plates. The buffer composition of the measurements was the following (expressed in mM): 140 NaCl, 5 KCl, 2 CaCl2), 2 MgCl2, 10 glucose, 10 HEPES (4-(2-hydroxyethyl)-1-piperazine-ethanesulfonic acid), 2 probenecid, pH=7.4. FLIPR Calcium 5 kit (Molecular Devices) was used as fluorescent dye, the medium was not removed prior to filling with the dye and the cells were not washed out either before or after. The incubation was performed at room temperature, the final concentration of DMSO was 1%. The materials to be measured were administered in 15 to 20 minutes pretreatment, at least two parallels of each compound in each concentration was measured.
Fluorescence signal was used to determine the intracellular Ca^2+ level, the reader was FlexStation II96. […] The fluorescence signal was logged in every 1.4 seconds for 1 minute. The reference compounds used were the following: (Arg^8)-vasopressin as agonist at concentration of EC80, determined for each plate, and relcovaptan as antagonist at 1 μM. The % of inhibition at each concentration and the IC50 value of the compounds were determined where a concentration line was also measured.
The total AVP concentration-response curve was recorded on each plate. The effect of compounds measured was expressed by percentage of relative inhibition compared to control response. […] The average IC50 values were calculated from at least three independent measurements in all cases.

[2] = target: T1, human vasopressin V1a receptor; assay: Human vasopressin V1a receptor binding assay; details: for Ki: 1321N1 cell membranes, [3H]vasopressin, read-out: Ki (nM) on hV1a cell line
Description: Human Vasopressin V1a Receptor Binding Assay
Cells were suspended in preparative buffer (50 mM Tris, 1 mM EDTA, 0.1 mM PMSF) and homogenized with glass homogenizing potter. To separate the raw membrane fraction two consecutive centrifugation procedures (40,000 g for 20 minutes at 4° C.) were executed, then the membrane was taken into the preparatory buffer during a final washing step, it was divided into aliquots which were stored at −80° C. until the time of measurement.
To determine the final affinity value, the results of at least two independent experiments were taken into account.
Non-specific binding values were determined in the presence of unlabeled 1.2×10^−6 M (Arg^8)-vasopressin. Samples were incubated in a total volume of 0.33 ml for 60 minutes at 27° C. Membrane-bound and free ligands were separated by filtration through a 0.5% polyethyleneimine-impregnated UniFilter® GF/B™. After drying the filter plates, 40 μl Microscint-20 (Packard) scintillation cocktail was added to the samples. Finally, radioactivity was measured using MicroBeta^2 Microplate Counter (Perkin Elmer).
During fitting, the asymptotes are not fixed. The K values (inhibition constant) are given with Cheng-Prusoff equation Ki=IC50/[1+(L/KD)] wherein [L] is the radioligand concentration used in the experiment and [KD] is the affinity of the radioactively labelled ligand for the given receptor. The KD is determined beforehand using the Scatchard curve.

T1 sequence (P37288 whole entry): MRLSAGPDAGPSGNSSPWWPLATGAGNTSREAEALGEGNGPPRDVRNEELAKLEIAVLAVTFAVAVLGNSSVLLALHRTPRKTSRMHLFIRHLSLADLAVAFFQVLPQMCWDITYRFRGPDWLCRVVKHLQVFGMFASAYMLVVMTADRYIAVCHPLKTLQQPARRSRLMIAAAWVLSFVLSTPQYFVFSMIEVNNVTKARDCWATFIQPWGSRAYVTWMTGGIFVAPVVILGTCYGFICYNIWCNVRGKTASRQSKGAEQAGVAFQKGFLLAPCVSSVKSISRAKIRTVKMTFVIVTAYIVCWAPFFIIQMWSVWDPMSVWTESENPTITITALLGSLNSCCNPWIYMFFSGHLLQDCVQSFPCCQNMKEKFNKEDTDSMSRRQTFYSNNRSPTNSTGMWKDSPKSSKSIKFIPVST

SMILES | IC50 [1] [nM] | Ki [2] [nM] | % at 1 μM, printed in the column Ki (nM) on hV1a cell line ([2]; at 1 μM) [% at 1 μM]
COC1(C)CCC(c2nnc3n2-c2ccc(Cl)cc2CC(NC(C)C)C3)CC1 (mixture of isomers) [Example 203, 8-chloro-1-(4-methoxy-4-methylcyclohexyl)-N-(propan-2-yl)-5,6-dihydro-4H-[1,2,4]triazolo[4,3-a][1]benzazepin-5-amine] | 210 | 10.1 | –
CO[C@@H]1Cc2cc(Cl)ccc2-n2c(nnc2[C@H]2CC[C@H](C(F)(F)F)CC2)C1 (single isomer, unassigned) [Example 132] | 2.5 | 0.3 | –
CO[C@H]1Cc2cc(Cl)ccc2-n2c(nnc2[C@H]2CC[C@H](C(F)(F)F)CC2)C1 (single isomer, unassigned) [Example 133] | 6.5 | 0.4 | –
CO[C@@H]1Cc2cc(F)ccc2-n2c(nnc2[C@H]2CC[C@H](Oc3ccccn3)CC2)C1 (single isomer, unassigned) [Example 176] | 1.1 | 0.4 | –
CO[C@H]1Cc2cc(F)ccc2-n2c(nnc2[C@H]2CC[C@H](Oc3ccccn3)CC2)C1 (single isomer, unassigned) [Example 177] | 0.9 | 0.3 | –
NC1Cc2cc(Cl)ccc2-n2c(nnc2C2CCN(c3ccccn3)CC2)C1 (stereo not drawn) [Example 2, 8-chloro-1-[1-(pyridin-2-yl)piperidin-4-yl]-5,6-dihydro-4H-[1,2,4]triazolo[4,3-a][1]benzazepine-5-amine] | 170 | 7 | –
CC(=O)NC1Cc2cc(Cl)ccc2-n2c(nnc2C2CCN(c3ccccn3)CC2)C1 (stereo not drawn) [Example 3, N-[8-chloro-[1-(pyridin-2-yl)piperidin-4-yl]-5,6-dihydro-4H-[1,2,4]triazolo[4,3-a][1]benzazepin-5-yl]acetamide] | 16 | 2.1 | –
CC(C)C(=O)NC1Cc2cc(Cl)ccc2-n2c(nnc2C2CCN(c3ccccn3)CC2)C1 (stereo not drawn) [Example 4] | 825 | 70 | –
CC(C)(C)OC(=O)NC1Cc2cc(Cl)ccc2-n2c(nnc2[C@H]2CC[C@H](Oc3ccccn3)CC2)C1 (stereo partly drawn) [Example 5, Tert-butyl {8-chloro-1-[trans-4-(pyridin-2-yloxy)cyclohexyl]-5,6-dihydro-4H-[1,2,4]triazolo[4,3-a][1]benzazepine-5-yl}carbamate] | 17 | 3.8 | –
N[C@H]1Cc2cc(Cl)ccc2-n2c(nnc2[C@H]2CC[C@H](Oc3ccccn3)CC2)C1 [Example 7, (5S)-8-chloro-1[trans-4-(pyridin-2-yloxy)cyclohexyl]-5,6-dihydro-4H-[1,2,4]triazolo[4,3-a][1]benzazepine-5-amine] | 20 | 2.1 | –
NCC(=O)NC1Cc2cc(Cl)ccc2-n2c(nnc2[C@H]2CC[C@H](Oc3ccccn3)CC2)C1 (stereo partly drawn) [Example 10, N-{8-chloro-1-[trans-4-(pyridin-2-yloxy)cyclohexyl]-5,6-dihydro-4H-[1,2,4]triazolo[4,3-a][1]benzazepin-5-yl}glycinamide] | 12 | 1.8 | –
NCC(=O)N[C@H]1Cc2cc(Cl)ccc2-n2c(nnc2[C@H]2CC[C@H](Oc3ccccn3)CC2)C1 [Example 11, N-{(5S)-8-chloro-1-[trans-4-(pyridin-2-yloxy)cyclohexyl]-5,6-dihydro-4H-[1,2,4]triazolo[4,3-a][1]benzazepin-5-yl}glycinamide] | 480 | 32 | –
N[C@H](C(=O)N[C@@H]1Cc2cc(Cl)ccc2-n2c(nnc2[C@H]2CC[C@H](Oc3ccccn3)CC2)C1)c1ccccc1 [Example 13, (2S)-2-amino-N-{(5R)-8-chloro-1-[trans-4-(pyridin-2-yloxy)cyclohexyl]-5,6-dihydro-4H-[1,2,4]triazolo[4,3-a][1]benzazepin-5-yl}-2-phenylacetamide] | 45 | 5 | –
N[C@@H](C(=O)N[C@@H]1Cc2cc(Cl)ccc2-n2c(nnc2[C@H]2CC[C@H](Oc3ccccn3)CC2)C1)c1ccccc1 [Example 14, (2R)-2-amino-N-{(5R)-8-chloro-1-[trans-4-(pyridin-2-yloxy)cyclohexyl]-5,6-dihydro-4H-[1,2,4]triazolo[4,3-a][1]benzazepin-5-yl}-2-phenylacetamide] | 10 | 1.1 | –
O=C(CO)NC1Cc2cc(Cl)ccc2-n2c(nnc2[C@H]2CC[C@H](Oc3ccccn3)CC2)C1 (stereo partly drawn) [Example 15, N-{8-chloro-1-[trans-4-(pyridin-2-yloxy)cyclohexyl]-5,6-dihydro-4H-[1,2,4]triazolo[4,3-a][1]benzazepin-5-yl}-2-hydroxyacetamide] | 3.7 | 0.4 | –
CN(C)C(=O)NC1Cc2cc(Cl)ccc2-n2c(nnc2[C@H]2CC[C@H](Oc3ccccn3)CC2)C1 (stereo partly drawn) [Example 16, 3-{8-chloro-1-[trans-4-(pyridin-2-yloxy)cyclohexyl]-5,6-dihydro-4H-[1,2,4]triazolo[4,3-a][1]benzazepin-5-yl}-1,1-dimethylurea] | 10 | 3 | –
CN(C)CC(=O)NC1Cc2cc(Cl)ccc2-n2c(nnc2[C@H]2CC[C@H](Oc3ccccn3)CC2)C1 (stereo partly drawn) [Example 17, N-{8-chloro-1-[trans-4-(pyridin-2-yloxy)cyclohexyl]-5,6-dihydro-4H-[1,2,4]triazolo[4,3-a][1]benzazepin-5-yl}-N^2,N^2-dimethylglycinamide] | 35 | 2.1 | –
CN(C)C1Cc2cc(Cl)ccc2-n2c(nnc2[C@H]2CC[C@H](Oc3ccccn3)CC2)C1 (stereo partly drawn) [Example 22, 8-chloro-N,N-dimethyl-1-[trans-4-(pyridin-2-yloxy)cyclohexyl]-5,6-dihydro-4H-[1,2,4]triazolo[4,3-a][1]benzazepine-5-amine] | 2.8 | 0.5 | –
Clc1ccc2c(c1)CC(NC1CCC1)Cc1nnc([C@H]3CC[C@H](Oc4ccccn4)CC3)n1-2 (stereo partly drawn) [Example 27, 8-chloro-N-cyclobutyl-1-[trans-4-(pyridin-2-yloxy)cyclohexyl]-5,6-dihydro-4H-[1,2,4]triazolo[4,3-a][1]benzazepine-5-amine] | 7 | 1.1 | –
Clc1ccc2c(c1)CC(NC1COC1)Cc1nnc([C@H]3CC[C@H](Oc4ccccn4)CC3)n1-2 (stereo partly drawn) [Example 28, 8-chloro-N-(oxetan-3-yl)-1[trans-4-(pyridin-2-yloxy)cyclohexyl]-5,6-dihydro-4H-[1,2,4]triazolo[4,3-a][1]benzazepine-5-amine] | 5.4 | 0.7 | –
FC1(F)CCC(NC2Cc3cc(Cl)ccc3-n3c(nnc3[C@H]3CC[C@H](Oc4ccccn4)CC3)C2)CC1 (stereo partly drawn) [Example 30, 8-chloro-N-(4,4-difluorocyclohexyl)-1-[trans-4-(pyridin-2-yloxy)cyclohexyl]-5,6-dihydro-4H-[1,2,4]triazolo[4,3-a][1]benzazepine-5-amine] | 15 | 1.4 | –
COc1ccc2c(c1)CC(N)Cc1nnc([C@H]3CC[C@H](Oc4ccccn4)CC3)n1-2 (stereo partly drawn) [Example 31, 8-methoxy-1-[trans-4-(pyridin-2-yloxy)cyclohexyl]-5,6-dihydro-4H-[1,2,4]triazolo[4,3-a][1]benzazepine-5-amine hydrochloride] | 260 | 17 | –
COc1ccc2c(c1)CC(NC(C)C)Cc1nnc([C@H]3CC[C@H](Oc4ccccn4)CC3)n1-2 (stereo partly drawn) [Example 32, 8-methoxy-N-(propan-2-yl)-1-[trans-4-(pyridin-2-yloxy)cyclohexyl]-5,6-dihydro-4H-[1,2,4]triazolo[4,3-a][1]benzazepine-5-amine] | 85 | 6 | –
CC(C)NC1Cc2cc(Cl)ccc2-n2c(nnc2C2CC(F)(F)C2)C1 (stereo not drawn) [Example 41, 8-chloro-1-(3,3-difluorocyclobutyl)-N-(propan-2-yl)-5,6-dihydro-4H-[1,2,4]triazolo[4,3-a][1]benzazepine-5-amine] | – | 600 | –
CC(C)NC1Cc2cc(Cl)ccc2-n2c(nnc2C2CCC(F)(F)CC2)C1 (stereo not drawn) [Example 42, 8-chloro-1-(4,4-difluorocyclohexyl)-N-(propan-2-yl)-5,6-dihydro-4H-[1,2,4]triazolo[4,3-a][1]benzazepine-5-amine] | – | – | 42
